Source: patent publication US7147866B2, “UV-absorbing lipid vesicles” (Galaxy Surfactants Limited, priority 2004, dated 2006)

Tests used:
[1] = Molar extinction coefficient (UV absorption) in methanol; assay type: physicochemical; conditions: at λmax 305 nm in methanol
[2] = Vesicle formation and stability of aqueous dispersion; assay type: physicochemical
Source text: However, this short duration of stability of aqueous suspension is sufficient for conducting the photoprotection experiment.

[3] = system: hairless skin of inner side of forearm; experiment: Photoprotection on human forearm skin exposed to midday sun; melanin content and erythema levels by Mexameter-18; assay type: in vivo; conditions: liposomal vs non-vesicle aqueous suspension
Procedure: Liposomal dispersion composition (200 mg of 5.0% dispersion) of p-methoxy cinnamidopropyldimethylbehenyl ammonium tosylate and a cream preparation containing octyl methoxy cinnamate (200 mg of cream containing 5% OMC) are applied on hairless skin of inner side of forearm (36 cm^2). The forearms are exposed to midday sun for 15 minutes. The melanin content and erythema levels have been measured by Mexameter-18 (Courage+Khazakha, gmbh, Germany) before and after the exposure.

| Compound | Molar extinction coefficient, ε [1] | Stability of dispersion in water ([2]; aqueous suspension) | Vesicle formation ([2]; lipid by itself in water) | Photoprotection efficacy compared with p-methoxy cinnamidopropyl dimethyllauryl ammonium tosylate suspension [3] |
| --- | --- | --- | --- | --- |
| CCCCCCCCCCCCCCCCCCCCCC[N+](C)(C)CCCNC(=O)c1ccc(N(C)C)cc1.Cc1ccc(S(=O)(=O)[O-])cc1 [p-N,N-dimethylamine benzamidopropyldimethylbehenyl ammonium tosylate] | 22,200 |  |  |  |
| CCCCCCCCCCCC[N+](C)(C)CCCNC(=O)C=Cc1ccc(OC)cc1.Cc1ccc(S(=O)(=O)[O-])cc1 [p-methoxy cinnamidopropyl dimethyllauryl ammonium tosylate] |  | unstable dispersion in water | does not form vesicles |  |
| CCCCCCCCCCCCCCCCCCCCCC[N+](C)(C)CCCNC(=O)C=Cc1ccc(OC)cc1.Cc1ccc(S(=O)(=O)[O-])cc1 [p-methoxy cinnamidopropyldimethylbehenyl ammonium tosylate] | 23,000 |  |  | much more superior in protecting skin |
